Data on two substances can be found in US20260146232A1, “METHODS FOR PROMOTING HOMING AND ENGRAFTMENT OF HEMATOPOIETIC STEM CELLS” (The Trustees of Indiana University, priority 2022, published 2026).

The test system of data set [1] is YTHDF2 and CXCR4. In words: YTHDF2 binding level of CXCR4 (YTHDF2 RIP combined with RT-qPCR). Type of data set: cell-based, human. Here is the method:
RNA immunoprecipitation. RNA immunoprecipitation was performed as previously described^14. Briefly, 0.5-1×10^6 collected human CD34^+ cells were lysed in buffer A (20 mM Tris-Cl, pH 8.0; 100 mM NaCl, 1 mM EDTA, 0.5% NP-40, protease and RNase inhibitors) for 20 min at 4° C. After centrifugation for 5 min, 1/10th volume of cell lysate was saved as input. Anti-YTHDF2 (Abcam, ab220163) was prebound to the protein A/G beads and then reacted with the rest of the cell lysate overnight at 4° C. After elution from the beads, the RNA samples were precipitated with ethanol and dissolved in RNase-free water. RNAs were further purified with RNA Clean and Concentrator-5 (Zymo, R1013). The relative CXCR4 enrichment was determined by calculating the Ct values of the RIP sample relative to the input sample. Expression of non-m6a housekeeping gene ACTB was used as an internal control. Data are shown as relative binding level normalized to levels in sh-Control group, set to 1.
In general terms: In qPCR the cycle at which signal appears reflects the starting amount.

Data set [2] relates to human CB CD34+ cells. In words: Long-term engraftment / limiting dilution analysis (LDA) in NSG mice. Type of data set: in vivo. The method, then:
Limiting dilution analysis (LDA). Frequency of human SCID repopulating cells (SRCs) was determined by LDA as reported before. Increasing doses of GFP overexpressing CD34^+ cells (2500, 5000 or 10000 cells) were intravenously injected into sublethally irradiated NSG recipient mice (350 cGy; 137Cs source, single dose). Four months after transplantation, the percentage of GFP^+ human CD45^+ cell chimerism was analyzed by immunostaining and flow cytometry. For long-term engraftment assays that assess the self-renewal capacity of HSC, 3×10^6 BM cells from primary recipients of the 10000-cell group were intravenously transplanted into secondary sub-lethally irradiated NSG recipient mice.

Data set [3] deals with YTHDF2. Description: Relative YTHDF2 expression level in human CB CD34+ cells. Type of data set: cell-based. The conditions noted are these: siRNA 2 μM electroporated into human CB CD34+ cells. From the text: (§1) Human CD34^+ CB cell collection and culture. Umbilical CB units were supplied by Cleveland Cord Blood Bank and CordUse, Orlando, FL, USA. All studies were approved by the institutional review board of the IUSM. Mononuclear cells were isolated by density gradient centrifugation and CD34^+ cells were isolated by immunomagnetic selection kit (Miltenyi Biotec, 130-046-702). […] For molecular compound treatment, all reagents were ordered from Cayman Chemical (Ann Arbor, MI, USA). Briefly, molecular compounds were added in the initiation of human CB CD34^+ cells culture, the time and concentration of each molecular compound for cell treatment was shown in figure legends.
(§2) RNA extraction and real-time PCR. After cells were harvested by FACS, RNA was extracted by a RNeasy Mini Kit following manufacturer's protocol (Qiagen, 74106). Total RNA was reverse-transcribed by use of Superscript III kit (ThermoFisher, 18080093). Quantitative real-time PCR reactions were performed by SYBR Green PCR Master Mix (Thermo Fisher, Florence, KY, USA) and an Agilent Mx3000P QPCR System. Expression of housekeeping gene GAPDH was used as an internal control. Data are shown as relative mRNA level normalized to levels in vehicle control, set to 1.

For data set [4], the system named is CXCR4. Description: Surface CXCR4 protein level (MFI) by flow cytometry. Type of data set: cell-based, human. The conditions noted are these: for CXCR4 protein level: siRNA knockdown.
Description: as §1
Flow cytometry. Fresh or cultured CB cells were sorted for different phenotypes by using the following antibodies. Antibodies were used to detect CD34 (BV786, BD Biosciences, 744741), CD34 (FITC, BD Biosciences, 340668), CD45RA (Taxe-red, BD Biosciences, 562298), CD90 (BV421, BD Biosciences, 562556), CD49f (cy5.5, BD Biosciences, 562495), CD38 (PE, BD Biosciences, 560981). CD3 (BV421, BD Biosciences, 562427), CD33 (PE, BD Biosciences, 555450), CD19 (PE, BD Biosciences, 555413), CXCR4 (APC, BD Biosciences, 555976) and CD45 (APC, BD Biosciences, 555485). Gating strategy of phenotypic HSCs were shown in supplementary FIG. 2B.
A general note: Flow cytometry measures light scatter and fluorescence of single cells or particles in a stream.

Data set [5] relates to m6A labelled CXCR4. Description: m6A enrichment on CXCR4 (m6A IP combined with RT-qPCR). Type of data set: cell-based, human. The method, then: M6A-RNA Immunoprecipitation. MeRIP analysis was used as previously described^15. Briefly, the total RNAs were extracted, and then RNA concentration was adjusted to 1 μg/μl. RNA was fragmented into ˜100 nt size and these RNA were immunoprecipitated with the anti-m6A antibody according to the standard protocol of the Magna MeRIP m6A Kit (Merck Millipore, 17-10499). M6A enrichment was determined by qPCR analysis.

For data set [6], the system named is phenotypic HSC (CD34+ CD38- CD45RA- CD90+ CD49f+). Description: Chemotaxis (transwell migration) assay toward SDF-1, phenotypic HSCs. Type of data set: cell-based, human. The method, then: (§3) Chemotaxis assay. Chemotaxis assays were performed in Costar 24-well trans-well plates with 6.5 mm diameter inserts with 5.0 μm pores (Corning, NY, USA). Briefly, 650 μL of IMDM medium (37° C.) that contained 0.5% bovine serum albumin (Sigma-Aldrich) and SDF-1 (0, 50 ng/mL) was added to the bottom well. Cells were suspended at 1×10^5 cells/100 μL in IMDM medium and loaded to the upper chamber of the trans-well. Trans-well plates were placed in a 37° C. incubator with 95% humidity and 5% CO2 for 4 hours. Percent migration was measured using flow cytometry with number of cells in the bottom chamber divided by number of cells placed in the upper chamber. To calculate the percent migration of CB HSCs, phenotypic HSCs was determined by surface staining and flow cytometry analysis. Human CB HSC chemotaxis was calculated as number of HSCs in the bottom chamber divided by number of HSCs loaded in the upper chamber. For AMD3100 administration, cells were treated with 5 μg/mL AMD3100 (239820, Sigma-Aldrich) for 30 min right before the chemotaxis assay.

The test system of data set [7] is CXCR4. Description: CXCR4 RNA level in human CB CD34+ cells. Type of data set: cell-based. The conditions noted are these: YTHDF2 knockdown by siRNA. The method, then: as §2, with “1. SEQ ID NO: 1-16 are the primer sequences utilized.” for “1.”
Data set [8] has as its system human CB CD34+ cells. In words: Chemotaxis (transwell migration) assay toward SDF-1, CB CD34+ cells. Type of data set: cell-based. Here is the method:
as §3

For data set [9], the system named is human CB CD34+ cells. Description: Homing assay of treated human CB CD34+ cells in NSG mice. Type of data set: in vivo. The conditions noted are these: 500,000 cells. The method, then: Homing assay. Homing of human CB CD34^+ cells was evaluated in NSG mice. Molecular compounds treated or siRNA transfected human CB CD34+ cells (500,000 for each mouse) were intravenously injected into sub-lethally irradiated (350 cGy) NSG mice. After 24 h, these recipient mice were sacrificed, BM cells from each mouse were collected. Cells were stained with anti-human CD45 antibody, then resuspended in 1% formaldehyde buffer. Flow cytometry analysis was performed to determine the percentage of human CD45^+ cells. BM cells from non-transplanted NSG mice served as negative controls.

Data set [10] has as its system CB CD34+ cells. Description: Colony-forming unit (CFU) assay. Type of data set: cell-based, human. The conditions noted are these: AGII-treated CB CD34+ cells.
Data set [11] deals with FTO. Description: Relative FTO expression level by realtime PCR. Type of data set: cell-based. The conditions noted are these: AGII 4 μM, 20 hours, human CB CD34+ cells. Here is the method:
Human CD34^+ CB cell collection and culture. Umbilical CB units were supplied by Cleveland Cord Blood Bank and CordUse, Orlando, FL, USA. All studies were approved by the institutional review board of the IUSM. Mononuclear cells were isolated by density gradient centrifugation and CD34^+ cells were isolated by immunomagnetic selection kit (Miltenyi Biotec, 130-046-702). The purity of human CD34^+ CB cells was over 90% and the cells were cultured in StemSpanII serum-free medium ([…] Technologies, 09650) supplemented with 100 ng/mL stem cell factor (SCF), 100 ng/mL FMS-like tyrosine kinase 3 ligand (Flt3L) and 100 ng/mL thrombopoietin (TPO). For molecular compound treatment, all reagents were ordered from Cayman Chemical (Ann Arbor, MI, USA). Briefly, molecular compounds were added in the initiation of human CB CD34^+ cells culture, the time and concentration of each molecular compound for cell treatment was shown in figure legends.
RNA extraction and real-time PCR. After cells were harvested by FACS, RNA was extracted by a RNeasy Mini Kit following manufacturer's protocol (Qiagen, 74106). Total RNA was reverse-transcribed by use of Superscript III kit (ThermoFisher, 18080093). Quantitative real-time PCR reactions were performed by SYBR Green PCR Master Mix (Thermo Fisher, Florence, KY, USA) and an Agilent Mx3000P QPCR System. […]

[12] abbreviates: AGII-treated human CB CD34+ cells.

Turning to “5′-TTGGCTATTGGGAACGTCCTT-3′ (partner strand not given here) [siRNA]”, in data set [1] (YTHDF2 knockdown by siRNA), the “binding level of YTHDF2 and CXCR4” value was “significantly decreased”. In addition, the “engraftment in secondary NSG mice” value in [2] (BM cells from siRNA transfected group) is listed as “enhanced engraftment”. In data set [2] (siRNA transfected group), the “increase in number of functionally detectable SRCs compared with control” value was about 4 fold. Moreover, the “SRC frequency (Poisson distribution analysis)” value in [2] (siRNA transfected group, control 1/2439) is listed as 1/667. In addition, the “number of SRCs” value in data set [2] (siRNA transfected group, control 410) was determined as 1478 SRCs in 1×10^6 cells. The “human myeloid and B-cell chimerism” value in data set [2] (siRNA transfected, BM 4 months) was “significantly increased”. Also, in data set [2] (siRNA transfected, PB at 2 and 4 months, BM at 4 months), the “engraftment vs control group” value was “enhanced engraftment”. Further, in data set [3], the “YTHDF2 expression at the RNA and protein level” value is listed as “efficiently downregulated”. Besides, the CXCR4 protein level entry in data set [4] (HSCs (CD34+ CD38- CD45RA- CD49f+ CD90+)) and in data set [4] (human CB CD34+ cells) was “notably upregulated” each time. Moreover, the “expression level of m6A labelled CXCR4” value in data set [5] (YTHDF2 knockdown by siRNA) was “greatly increased”. The “migration to SDF-1 in the HSC population” value in [6] (siRNA transfected cells, SDF-1 50 ng/mL) is reported as “Enhanced migration”. The “RNA level of CXCR4” value in [7] is listed as “significantly upregulated”. Besides, the “migration of CB CD34+ cells to SDF-1” value in data set [8] (siRNA transfected cells) is on record as “significant migration”. Further, the “human CB CD34+ cell homing in NSG mice” value in data set [9] (siRNA transfected, 24 hours) is given as “enhanced”.

On to “Angiotensin II [AGII, peptide hormone of the RAAS system]”, for which the “binding between YTHDF2 and CXCR4” value in [1] (setting [12]) is recorded as “decreased”. Besides, the “colony output vs vehicle” value in data set [10] is “no significant difference”. Further, the “engraftment in NSG recipients vs control” value in data set [2] (AGII-treated cells, 10,000 cells, PB and BM) is “significantly increased”. For the same substance, the “human myeloid and lymphoid cell chimerism” value in data set [2] (AGII-treated cells, BM 4 months) is reported as “increased”. For the same substance, in [2] (AGII-treated cells, control 1/3984), the “SRC frequency (Poisson distribution analysis)” value was 1/1280. Also, the “number of SRCs” value in data set [2] (AGII-treated cells, control 251) was 781 SRCs. Moreover, the “engraftment in secondary transplantation vs control” value in data set [2] (AGII-treated cells, secondary NSG mice at 4 months) is reported as “enhanced engraftment”. Besides, the “protein level of CXCR4” value in [4] (AGII-treated vs vehicle) is recorded as “upregulates”. Moreover, in data set [11], the FTO expression result is “significantly upregulated”. In addition, the “relative m6A labeled CXCR4 level” value in data set [5] (setting [12]) is on record as “decreased”. For the same substance, in data set [6] (AGII-treated cells), the “chemotaxis to SDF-1 of HSCs” value was “greatly enhanced”. Besides, in [8] (AGII-treated cells), the “human CB CD34+ cell migration toward graded doses of SDF-1” value was “greatly enhanced”. Besides, the “homing to mouse BM” value in [9] (20 hours AGII treatment, 24 h after transplantation) was “dramatically promoted”.
